# Source: patent US20250302913A1, “LACRIPEP PROMOTES NEUROREGENERATION AND MAINTAINS EPITHELIAL PROGENITOR CELL IDENTITY” (The Regents of The University of California, priority 2022, published 2025)
# Legend:
# Aire KO corneas = test: RNAseq of corneas at day 7 of treatment; type: in vivo, mouse
# Excerpt: To identify potential downstream targets of lacripep treatment, we elucidated changes in corneal gene expression and signaling pathways at the day 7 time point through RNAseq. Principal component analysis (PCA) identified major transcriptional differences between each treatment group (FIG. 6A). […] Subsequent analysis yielded enriched gene sets that were highly associated with neuronal gene ontology (GO) terms e.g., synapse (P=3.6E-47), visual perception (P=5.8E-49), neuron projection (P=2.1E-29), and response to stimulus (P=1.8E-19) (FIG. 4C). These included cohorts of genes expressed by nerves and/or corneal epithelial cells involved in axonogenesis and axon guidance e.g., Neurod2, Cntn4, ephrins (Epha5, Epha7, Epha8) and semaphorins (Sema6a, Sema7a); synapse formation and function e.g., synaptic vesicle membrane proteins (Syt1; synaptophysin-Syp) and synaptic vesicle exocytosis regulators (Rims1, Rims2); neuronal signaling e.g., GABA receptors (Gabra2, Gabrr1), glutamate receptors (Gria2, Gria4), and G protein signal-transducing mediators (Gnb3, Gng4); and neurotransmitter transport e.g. glutamate transporters (Slc17a7) and GABA transporters (Slc6a1, Slc32a1) (FIG. 4D). Analysis of corneas treated with lacripep or PBS versus untreated corneas further emphasized the ability of lacripep and not PBS alone to induce transcription of neuronal gene sets (FIG. 6B).
# Total RNA was collected at 7 days of treatment and purified using RNAaqueous and DNase reagents according to the manufacturer's instructions (Ambion, Houston, TX, USA). RNA quality was assessed using the Agilent 2100 BioAnalyzer, and samples with an RNA integrity ≥6.0 were included for RNA sequencing. The synthesis of mRNA libraries was performed by Novogene Corporation Inc. according to their protocols. RNA library was formed by ploy A capture (or rRNA removal), RNA fragmentation by covaris or enzyme digestion and reverse transcription of cDNA. Sequencing was performed as described below.
# RNA libraries were sequenced on an Illumina NovaSeq 6000. Depths of 20-30 million 150 bp paired-end reads were generated for each sample. Quality control metrics were performed on raw sequencing reads using the FASTQC v0.11.9 application (76). Reads were mapped to the UCSC Mus musculus genome mm 10 (NCBI build v38) using Spliced Transcripts Alignment to a Reference (STAR) (77). At least 90% of the reads were successfully mapped. Reads aligning to the mm 10 build were quantified against Ensembl Transcripts release 93 using Partek® E/M (Partek's optimization of the expectation maximization algorithm, Partek Inc, St. Louis, MO, USA), which disregarded any reads that aligned to more than one location or more than one gene at a single location. […]
# syndecan-1 (SDC1) = target: T1, syndecan-1 (SDC1) (Homo sapiens, UniProt P18827); details: cited from earlier work
# T1 sequence (P18827 23-310): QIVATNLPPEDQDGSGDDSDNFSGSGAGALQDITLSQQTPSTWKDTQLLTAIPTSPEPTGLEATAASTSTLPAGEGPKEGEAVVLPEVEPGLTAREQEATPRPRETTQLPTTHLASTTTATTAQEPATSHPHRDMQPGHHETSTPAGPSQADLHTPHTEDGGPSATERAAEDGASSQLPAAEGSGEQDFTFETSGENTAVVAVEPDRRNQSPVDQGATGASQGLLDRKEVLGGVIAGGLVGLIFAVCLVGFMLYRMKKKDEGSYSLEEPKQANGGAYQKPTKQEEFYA
# [1] = test system: Rest, Isl1, Rreb1 regulons; test: iRegulon transcription factor-gene target regulatory network analysis; set-up: species or system mouse; details: day 7; lacripep vs PBS; NES>3
# Excerpt: To identify candidate transcription factors that regulate these gene sets, we performed transcription factor (TF)-gene target regulatory network analysis using iRegulon (37). iRegulon identifies transcription factor-binding motifs that are enriched in the genomic regions of a query gene set and predicts transcription factors that bind to them. […] ISL1 plays an essential role in the generation of sensory and sympathetic neurons (38 39), REST is a master regulator of neurogenesis that plays a role in modulating synaptic plasticity (40-42) and RREB1 regulates axon injury (43). […] The Isl1 exclusive gene set was also extensively enriched in genes involved with functional and structural nerve-mediated processes including visual perception (P=3.5E-27, e.g., Capb4, Vsx1), response to stimulus (P=9.7E-19; e.g., Slc17a7, Ush2a), synapse (P=9.4E-8, e.g. Magi2, Synpr) and neuron projection (P=6.4E-6, e.g., Cdh23, Kif1a) (FIG. 4F).
# To identify regulatory networks underlying the impact of lacripep on tissue regeneration, we used the cytoscape application iRegulon (37) to predict master regulators, i.e., transcription factors whose regulons (transcriptional target sets) are highly enriched with the input gene list.
# [2] = lacripep- versus PBS-treated corneas, Padj<0.05, 2-fold change cutoff
substance,measurement,setting,value
"Ac-KQFIENGSEFAQKLLKKFSLLKPWA-NH2 [lacripep, amino terminus acetylated, carboxyl terminus aminated]","expression of inflammatory mediators (IL1b, interferon response genes)",Aire KO corneas; across diseased corneas,expressed at similar levels in all diseased corneas
same,"expression of T cell markers, T cell response genes and macrophage markers",Aire KO corneas; compared to WT controls,remained significantly elevated
same,genes downregulated,Aire KO corneas; [2],15 genes
same,genes significantly upregulated,Aire KO corneas; [2],818 genes
same,binding and activation of syndecan-1,syndecan-1 (SDC1),bind and activate
same,upregulated target genes of Isl1 regulon,[1],394 genes
same,upregulated target genes of Rest regulon,[1],184 genes
same,upregulated target genes of Rreb1 regulon,[1],254 genes
